{
  "source": "patent US11366104B2",
  "about": "“Methods of identifying and monitoring mitochondrial dysfunction using monocyte screening” (Stealth BioTherapeutics Inc., priority 2014, dated 2022)",
  "key": {"[1]": {"system": "several mammalian cell types", "settings": "energy-independent manner; Zhao et al., J. Pharmacol Exp Ther., 304:425-432, 2003; cited from earlier work"}, "[2]": {"system": "Monocytes from Normal Dogs", "experiment": "Oxygen consumption rate (XF analyzer) in isolated monocytes incubated with peptide, normal dogs", "format": "cell-based, dog", "settings": "for MAXresp (maximal respiration) / Proton Leak / SRC (spare respiratory capacity): monocytes from normal dogs", "protocol": "(§1) Peripheral blood samples were obtained from 6 normal dogs and 6 dogs with coronary microembolizations-induced heart failure (LV ejection fraction ˜30%). Monocytes were isolated from the peripheral blood samples via sequential Ficoll and Percoll density gradients. Monocyte viability, assayed using Trypan blue exclusion, was ˜70%. An XFc/XF96 analyzer (Scahorsc Bioscience) was used to measure oxygen consumption rates (OCR) in monocytes in the presence and absence of 1 μM oligomycin, 0.5 μM FCCP, or 1 μM each rotenone and antimycin. Mitochondrial proton leak, maximal respiration (MAXresp) and spare respiratory capacity (SRC) were measured in the presence and absence of 0.1, 1.0 and 10 μM concentrations of D-Arg-2′6′Dmt-Lys-Phe-NH2. Results were expressed in pmols OCR/min/μg protein."}, "[3]": {"system": "Monocytes from Heart Failure Dogs", "experiment": "Oxygen consumption rate (XF analyzer) in isolated monocytes incubated with peptide, heart failure dogs", "format": "cell-based, dog", "settings": "for MAXresp (maximal respiration) / Proton Leak / SRC (spare respiratory capacity): monocytes from heart failure dogs", "protocol": "as §1"}, "[4]": {"settings": "heart failure dogs, 0.1, 1.0 and 10 μM"}},
  "data": [
    {"substance": "2′,6′-Dmt-D-Arg-Phe-Lys-NH2", "values": [
      {"measurement": "penetration of the plasma membrane", "setting": "[1]", "value": "readily penetrates the plasma membrane"}
    ]},
    {"substance": "D-Arg-2′6′Dmt-Lys-Phe-NH2", "values": [
      {"measurement": "MAXresp (maximal respiration)", "setting": "[2]; peptide concentration 0.1 μM", "value": 11.1, "unit": "pmols OCR/min/μg protein"},
      {"measurement": "Proton Leak", "setting": "[2]; peptide concentration 0.1 μM", "value": 0.54, "unit": "pmols OCR/min/μg protein"},
      {"measurement": "SRC (spare respiratory capacity)", "setting": "[2]; peptide concentration 0.1 μM", "value": 6.35, "unit": "pmols OCR/min/μg protein"},
      {"measurement": "MAXresp (maximal respiration)", "setting": "[2]; peptide concentration 1.0 μM", "value": 12.1, "unit": "pmols OCR/min/μg protein"},
      {"measurement": "Proton Leak", "setting": "[2]; peptide concentration 1.0 μM", "value": 0.47, "unit": "pmols OCR/min/μg protein"},
      {"measurement": "SRC (spare respiratory capacity)", "setting": "[2]; peptide concentration 1.0 μM", "value": 7.04, "unit": "pmols OCR/min/μg protein"},
      {"measurement": "MAXresp (maximal respiration)", "setting": "[2]; peptide concentration 10 μM", "value": 12.1, "unit": "pmols OCR/min/μg protein"},
      {"measurement": "Proton Leak", "setting": "[2]; peptide concentration 10 μM", "value": 0.48, "unit": "pmols OCR/min/μg protein"},
      {"measurement": "SRC (spare respiratory capacity)", "setting": "[2]; peptide concentration 10 μM", "value": 7.04, "unit": "pmols OCR/min/μg protein"},
      {"measurement": "effect on measures of monocyte mitochondrial function", "setting": "[2]; normal dogs, incubation with 0.1, 1.0 and 10 μM", "value": "no effect"},
      {"measurement": "change in MAXresp with concentration", "setting": "[3]; [4]", "value": "dose-dependent increase"},
      {"measurement": "change in SRC with concentration", "setting": "[3]; [4]", "value": "dose-dependent increase"},
      {"measurement": "change in proton leak with concentration", "setting": "[3]; [4]", "value": "dose-dependent decrease"},
      {"measurement": "monocyte mitochondrial function", "setting": "[3]; heart failure dogs, after treatment with 0.1, 1.0 and 10 μM", "value": "nearly normalized/restored"},
      {"measurement": "MAXresp (maximal respiration)", "setting": "[3]; peptide concentration 0.1 μM", "value": 6.3, "unit": "pmols OCR/min/μg protein"},
      {"measurement": "Proton Leak", "setting": "[3]; peptide concentration 0.1 μM", "value": 1.55, "unit": "pmols OCR/min/μg protein"},
      {"measurement": "SRC (spare respiratory capacity)", "setting": "[3]; peptide concentration 0.1 μM", "value": 1.95, "unit": "pmols OCR/min/μg protein"},
      {"measurement": "MAXresp (maximal respiration)", "setting": "[3]; peptide concentration 1.0 μM", "value": 8.3, "unit": "pmols OCR/min/μg protein"},
      {"measurement": "Proton Leak", "setting": "[3]; peptide concentration 1.0 μM", "value": 0.94, "unit": "pmols OCR/min/μg protein"},
      {"measurement": "SRC (spare respiratory capacity)", "setting": "[3]; peptide concentration 1.0 μM", "value": 3.64, "unit": "pmols OCR/min/μg protein"},
      {"measurement": "MAXresp (maximal respiration)", "setting": "[3]; peptide concentration 10 μM", "value": 9.4, "unit": "pmols OCR/min/μg protein"},
      {"measurement": "Proton Leak", "setting": "[3]; peptide concentration 10 μM", "value": 0.77, "unit": "pmols OCR/min/μg protein"},
      {"measurement": "SRC (spare respiratory capacity)", "setting": "[3]; peptide concentration 10 μM", "value": 4.51, "unit": "pmols OCR/min/μg protein"}
    ]}
  ]
}
